Measurements as given in ChEMBL document CHEMBL3393036, “Tetra-substituted pyridinylimidazoles as dual inhibitors of p38α mitogen-activated protein kinase and c-Jun N-terminal kinase 3 for potential treatment of neurodegenerative diseases” (J Med Chem, 2015).

Columns and labels:
[1] = molecular target: Receptor tyrosine-protein kinase erbB-4 (Homo sapiens) (UniProt Q15303); assay: Inhibition of ERBB4 (HER4) (unknown origin) at 5.5 uM by Caliper Mobility Shift Assay
[2] = molecular target: Platelet-derived growth factor receptor alpha (Homo sapiens) (UniProt P16234); assay: Inhibition of PDGFRa (unknown origin) at 5.5 uM by Caliper Mobility Shift Assay
Sequence of Platelet-derived growth factor receptor alpha (Homo sapiens) (P16234 whole entry): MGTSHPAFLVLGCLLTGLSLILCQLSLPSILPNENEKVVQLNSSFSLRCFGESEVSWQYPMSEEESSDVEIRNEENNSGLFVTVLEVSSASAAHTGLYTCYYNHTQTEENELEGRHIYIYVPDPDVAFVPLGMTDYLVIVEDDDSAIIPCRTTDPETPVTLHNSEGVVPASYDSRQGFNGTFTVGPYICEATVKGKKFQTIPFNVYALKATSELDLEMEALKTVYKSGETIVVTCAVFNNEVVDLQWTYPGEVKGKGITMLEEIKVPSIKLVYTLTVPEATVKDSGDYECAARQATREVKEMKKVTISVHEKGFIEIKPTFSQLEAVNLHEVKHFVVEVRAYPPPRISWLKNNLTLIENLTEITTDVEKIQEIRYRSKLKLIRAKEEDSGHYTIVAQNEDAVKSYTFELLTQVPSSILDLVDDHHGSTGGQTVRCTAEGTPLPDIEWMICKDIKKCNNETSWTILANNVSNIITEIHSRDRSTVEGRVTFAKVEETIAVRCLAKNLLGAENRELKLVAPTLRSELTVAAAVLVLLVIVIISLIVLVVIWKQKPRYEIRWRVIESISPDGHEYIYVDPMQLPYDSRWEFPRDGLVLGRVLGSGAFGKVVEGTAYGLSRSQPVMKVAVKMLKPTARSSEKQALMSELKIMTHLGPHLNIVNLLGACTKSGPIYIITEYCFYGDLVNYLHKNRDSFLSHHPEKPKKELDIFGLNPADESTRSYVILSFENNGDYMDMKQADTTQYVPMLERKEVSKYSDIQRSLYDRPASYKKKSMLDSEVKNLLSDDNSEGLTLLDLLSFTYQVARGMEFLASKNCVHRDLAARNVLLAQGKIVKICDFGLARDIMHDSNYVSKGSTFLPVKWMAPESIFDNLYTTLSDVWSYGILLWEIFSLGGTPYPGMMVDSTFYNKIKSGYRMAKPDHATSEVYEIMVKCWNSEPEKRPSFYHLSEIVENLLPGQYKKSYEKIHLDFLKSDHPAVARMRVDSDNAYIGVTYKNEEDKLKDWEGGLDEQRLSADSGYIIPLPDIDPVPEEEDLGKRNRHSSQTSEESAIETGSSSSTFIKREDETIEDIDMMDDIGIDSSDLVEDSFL

[3] = molecular target: T1, Ephrin type-B receptor 4 (Homo sapiens) (UniProt P54760); assay: Inhibition of EPHB4 (unknown origin) at 5.5 uM by Caliper Mobility Shift Assay
T1 sequence (whole entry): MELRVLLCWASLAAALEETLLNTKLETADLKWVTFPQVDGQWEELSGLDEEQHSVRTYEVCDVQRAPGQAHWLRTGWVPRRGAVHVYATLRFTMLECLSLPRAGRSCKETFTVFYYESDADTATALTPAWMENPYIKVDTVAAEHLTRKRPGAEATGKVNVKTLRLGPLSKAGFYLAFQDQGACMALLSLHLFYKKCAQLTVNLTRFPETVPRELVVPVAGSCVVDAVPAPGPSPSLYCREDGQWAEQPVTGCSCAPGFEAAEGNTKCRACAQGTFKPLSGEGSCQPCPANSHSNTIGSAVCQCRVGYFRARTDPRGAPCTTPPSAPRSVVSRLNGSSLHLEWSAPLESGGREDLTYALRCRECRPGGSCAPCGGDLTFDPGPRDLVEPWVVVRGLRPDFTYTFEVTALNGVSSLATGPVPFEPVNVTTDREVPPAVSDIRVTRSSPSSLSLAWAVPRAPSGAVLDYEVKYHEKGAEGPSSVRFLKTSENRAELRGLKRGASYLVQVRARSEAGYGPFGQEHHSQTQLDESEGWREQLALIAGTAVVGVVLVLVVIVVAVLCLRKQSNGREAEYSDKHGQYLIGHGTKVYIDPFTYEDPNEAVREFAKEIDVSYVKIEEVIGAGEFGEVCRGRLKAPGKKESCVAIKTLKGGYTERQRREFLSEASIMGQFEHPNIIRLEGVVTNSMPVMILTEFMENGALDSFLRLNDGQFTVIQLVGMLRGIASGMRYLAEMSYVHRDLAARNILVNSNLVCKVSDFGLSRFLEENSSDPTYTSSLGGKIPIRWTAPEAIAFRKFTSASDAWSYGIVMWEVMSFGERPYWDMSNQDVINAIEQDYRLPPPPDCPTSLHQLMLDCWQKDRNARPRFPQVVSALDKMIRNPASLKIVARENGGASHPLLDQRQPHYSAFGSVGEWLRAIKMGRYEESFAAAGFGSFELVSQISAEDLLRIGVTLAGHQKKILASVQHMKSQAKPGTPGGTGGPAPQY

[4] = molecular target: T2, TGF-beta-activated kinase 1 and MAP3K7-binding protein 1 (Homo sapiens) (UniProt Q15750); assay: Inhibition of MAP3K7-TAB1 (unknown origin) at 5.5 uM by Caliper Mobility Shift Assay
T2 sequence (whole entry): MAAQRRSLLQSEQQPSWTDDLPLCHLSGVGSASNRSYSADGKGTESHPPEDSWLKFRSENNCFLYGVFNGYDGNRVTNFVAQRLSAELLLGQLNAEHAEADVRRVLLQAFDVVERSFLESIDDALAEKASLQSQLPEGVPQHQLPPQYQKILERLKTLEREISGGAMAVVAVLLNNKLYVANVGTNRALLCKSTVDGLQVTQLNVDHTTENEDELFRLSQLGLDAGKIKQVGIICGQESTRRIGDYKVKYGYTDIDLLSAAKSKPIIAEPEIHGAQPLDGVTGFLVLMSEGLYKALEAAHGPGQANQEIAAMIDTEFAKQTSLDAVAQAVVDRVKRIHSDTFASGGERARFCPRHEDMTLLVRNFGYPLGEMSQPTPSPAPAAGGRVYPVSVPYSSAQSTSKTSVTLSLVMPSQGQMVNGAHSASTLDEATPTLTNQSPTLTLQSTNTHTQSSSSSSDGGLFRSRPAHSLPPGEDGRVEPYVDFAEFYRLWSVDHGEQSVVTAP

[5] = molecular target: Tyrosine-protein kinase JAK2 (Homo sapiens) (UniProt O60674); assay: Inhibition of JAK2 (unknown origin) at 5.5 uM by Caliper Mobility Shift Assay
Sequence of Tyrosine-protein kinase JAK2 (Homo sapiens) (O60674 whole entry): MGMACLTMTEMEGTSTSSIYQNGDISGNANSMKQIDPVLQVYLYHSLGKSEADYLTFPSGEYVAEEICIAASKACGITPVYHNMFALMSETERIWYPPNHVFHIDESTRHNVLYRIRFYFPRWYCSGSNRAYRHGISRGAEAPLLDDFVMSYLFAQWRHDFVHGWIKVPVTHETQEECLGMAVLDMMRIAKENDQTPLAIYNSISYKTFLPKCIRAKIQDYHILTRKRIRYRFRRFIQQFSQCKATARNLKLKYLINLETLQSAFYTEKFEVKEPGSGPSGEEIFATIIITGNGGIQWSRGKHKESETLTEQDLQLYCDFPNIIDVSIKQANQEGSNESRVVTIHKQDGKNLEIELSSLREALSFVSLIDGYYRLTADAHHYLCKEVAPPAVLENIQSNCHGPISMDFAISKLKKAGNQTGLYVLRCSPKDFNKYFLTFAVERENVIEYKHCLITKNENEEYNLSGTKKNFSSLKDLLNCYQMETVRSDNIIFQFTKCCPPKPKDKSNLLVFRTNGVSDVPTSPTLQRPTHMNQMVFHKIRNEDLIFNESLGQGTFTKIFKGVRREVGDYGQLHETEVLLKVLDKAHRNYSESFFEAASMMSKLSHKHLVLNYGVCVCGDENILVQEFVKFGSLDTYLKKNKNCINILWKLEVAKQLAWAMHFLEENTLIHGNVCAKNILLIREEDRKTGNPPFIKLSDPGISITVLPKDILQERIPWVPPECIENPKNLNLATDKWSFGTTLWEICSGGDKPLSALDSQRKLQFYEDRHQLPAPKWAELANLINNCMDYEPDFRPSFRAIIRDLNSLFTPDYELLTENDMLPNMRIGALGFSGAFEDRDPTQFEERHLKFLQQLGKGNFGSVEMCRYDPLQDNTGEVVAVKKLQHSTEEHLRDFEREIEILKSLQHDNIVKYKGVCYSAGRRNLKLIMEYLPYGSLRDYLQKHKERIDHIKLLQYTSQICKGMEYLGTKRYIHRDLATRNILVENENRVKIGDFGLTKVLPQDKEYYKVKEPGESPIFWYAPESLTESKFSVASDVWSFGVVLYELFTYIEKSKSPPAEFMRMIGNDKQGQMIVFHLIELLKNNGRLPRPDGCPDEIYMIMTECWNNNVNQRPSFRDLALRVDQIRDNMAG

[6] = molecular target: TRAF2 and NCK-interacting protein kinase (Homo sapiens) (UniProt Q9UKE5); assay: Inhibition of TNIK (unknown origin) at 5.5 uM by Caliper Mobility Shift Assay
[7] = molecular target: Cyclin-dependent kinase 4/cyclin D1 (Homo sapiens) (UniProt P11802+P24385); assay: Inhibition of CDK4D1 (unknown origin) at 5.5 uM by Caliper Mobility Shift Assay; type: protein-complex assay
[8] = molecular target: Tyrosine-protein kinase SYK (Homo sapiens) (UniProt P43405); assay: Inhibition of SYK (unknown origin) at 5.5 uM by Caliper Mobility Shift Assay
[9] = molecular target: Casein kinase I isoform gamma-3 (Homo sapiens) (UniProt Q9Y6M4); assay: Inhibition of CSNK1G3 (CK1) (unknown origin) at 5.5 uM by Caliper Mobility Shift Assay
Sequence of Casein kinase I isoform gamma-3 (Homo sapiens) (Q9Y6M4 whole entry, looked up, canonical isoform): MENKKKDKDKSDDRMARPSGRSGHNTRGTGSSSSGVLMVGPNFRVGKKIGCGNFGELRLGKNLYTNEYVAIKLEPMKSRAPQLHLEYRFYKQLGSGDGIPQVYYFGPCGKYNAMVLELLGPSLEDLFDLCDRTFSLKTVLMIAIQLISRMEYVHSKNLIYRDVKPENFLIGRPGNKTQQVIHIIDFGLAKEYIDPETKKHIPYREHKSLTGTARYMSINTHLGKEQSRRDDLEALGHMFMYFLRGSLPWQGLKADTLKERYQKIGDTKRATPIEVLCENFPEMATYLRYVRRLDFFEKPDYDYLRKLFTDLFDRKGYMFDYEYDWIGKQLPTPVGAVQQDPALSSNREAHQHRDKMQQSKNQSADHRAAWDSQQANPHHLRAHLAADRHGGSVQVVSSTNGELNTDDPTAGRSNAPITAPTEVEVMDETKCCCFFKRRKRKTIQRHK

[10] = molecular target: Vascular endothelial growth factor receptor 2 (Homo sapiens) (UniProt P35968); assay: Inhibition of KDR (unknown origin) at 5.5 uM by Caliper Mobility Shift Assay
Sequence of Vascular endothelial growth factor receptor 2 (Homo sapiens) (P35968 whole entry): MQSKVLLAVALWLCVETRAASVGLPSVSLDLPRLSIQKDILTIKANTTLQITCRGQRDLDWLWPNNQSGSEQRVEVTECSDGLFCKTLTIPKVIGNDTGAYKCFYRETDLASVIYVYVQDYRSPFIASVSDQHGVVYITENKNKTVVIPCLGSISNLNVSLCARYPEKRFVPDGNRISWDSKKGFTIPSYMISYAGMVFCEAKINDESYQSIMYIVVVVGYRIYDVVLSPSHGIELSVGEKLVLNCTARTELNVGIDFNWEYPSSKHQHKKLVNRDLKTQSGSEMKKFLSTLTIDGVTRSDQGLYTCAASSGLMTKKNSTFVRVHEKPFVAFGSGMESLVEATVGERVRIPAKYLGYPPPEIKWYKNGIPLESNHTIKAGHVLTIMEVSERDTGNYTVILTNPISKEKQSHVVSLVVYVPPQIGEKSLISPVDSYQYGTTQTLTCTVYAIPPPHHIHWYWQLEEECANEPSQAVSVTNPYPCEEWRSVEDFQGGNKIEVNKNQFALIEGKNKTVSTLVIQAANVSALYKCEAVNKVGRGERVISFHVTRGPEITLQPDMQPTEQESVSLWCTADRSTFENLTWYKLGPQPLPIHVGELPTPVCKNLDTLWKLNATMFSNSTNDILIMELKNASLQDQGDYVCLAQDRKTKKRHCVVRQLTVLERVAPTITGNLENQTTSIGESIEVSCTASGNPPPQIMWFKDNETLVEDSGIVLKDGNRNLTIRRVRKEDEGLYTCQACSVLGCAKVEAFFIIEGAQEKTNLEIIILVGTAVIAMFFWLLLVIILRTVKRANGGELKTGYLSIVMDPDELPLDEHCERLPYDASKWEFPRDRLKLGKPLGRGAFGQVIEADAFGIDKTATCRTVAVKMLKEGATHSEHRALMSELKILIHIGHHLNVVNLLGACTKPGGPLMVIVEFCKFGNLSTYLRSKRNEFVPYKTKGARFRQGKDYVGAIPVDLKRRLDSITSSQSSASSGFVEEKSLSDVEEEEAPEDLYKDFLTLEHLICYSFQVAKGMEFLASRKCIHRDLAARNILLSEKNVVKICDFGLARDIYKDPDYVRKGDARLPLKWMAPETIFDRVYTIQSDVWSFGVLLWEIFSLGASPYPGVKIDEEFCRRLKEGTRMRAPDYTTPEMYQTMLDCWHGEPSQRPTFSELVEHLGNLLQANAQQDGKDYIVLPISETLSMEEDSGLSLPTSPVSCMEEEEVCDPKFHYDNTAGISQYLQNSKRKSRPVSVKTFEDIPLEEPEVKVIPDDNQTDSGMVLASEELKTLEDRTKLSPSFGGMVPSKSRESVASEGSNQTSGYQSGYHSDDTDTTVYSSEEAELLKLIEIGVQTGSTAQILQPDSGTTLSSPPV

[11] = molecular target: Hepatocyte growth factor receptor (Homo sapiens) (UniProt P08581); assay: Inhibition of MET (unknown origin) at 5.5 uM by Caliper Mobility Shift Assay
[12] = molecular target: T3, Tyrosine-protein kinase ZAP-70 (Homo sapiens) (UniProt P43403); assay: Inhibition of ZAP70 (unknown origin) at 5.5 uM by Caliper Mobility Shift Assay
T3 sequence (whole entry): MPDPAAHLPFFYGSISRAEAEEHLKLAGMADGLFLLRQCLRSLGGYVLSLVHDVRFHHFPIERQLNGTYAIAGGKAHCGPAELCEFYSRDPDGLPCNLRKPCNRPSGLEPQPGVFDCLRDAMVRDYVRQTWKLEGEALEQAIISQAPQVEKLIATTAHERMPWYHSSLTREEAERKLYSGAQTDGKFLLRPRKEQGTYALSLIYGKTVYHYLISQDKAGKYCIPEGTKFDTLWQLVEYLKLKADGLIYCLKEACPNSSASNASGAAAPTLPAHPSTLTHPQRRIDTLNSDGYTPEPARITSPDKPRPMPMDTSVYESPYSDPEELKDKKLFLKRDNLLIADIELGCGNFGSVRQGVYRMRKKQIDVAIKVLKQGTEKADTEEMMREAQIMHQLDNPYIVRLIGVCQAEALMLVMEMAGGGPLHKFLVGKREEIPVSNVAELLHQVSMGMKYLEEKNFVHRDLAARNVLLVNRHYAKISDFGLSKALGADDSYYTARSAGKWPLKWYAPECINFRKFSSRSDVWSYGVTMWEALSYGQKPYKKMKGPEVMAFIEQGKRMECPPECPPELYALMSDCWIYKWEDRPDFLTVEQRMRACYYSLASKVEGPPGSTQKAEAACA

Row | inhibition [1] [%] | inhibition [2] [%] | inhibition [3] [%] | inhibition [4] [%] | inhibition [5] [%] | inhibition [6] [%] | inhibition [7] [%] | inhibition [8] [%] | inhibition [9] [%] | inhibition [10] [%] | inhibition [11] [%] | inhibition [12] [%] | Compound
1 | < 50 | < 50 | < 50 | < 50 | < 50 | < 50 | < 50 | < 50 | < 50 | < 50 | < 50 | < 50 | CC(=O)Nc1cc(-c2c(-c3ccc(F)cc3)nc(S/C=C\C(=O)O)n2C2CC2)ccn1
2 | < 50 | < 50 | < 50 | < 50 | < 50 | < 50 | < 50 | < 50 | < 50 | < 50 | < 50 | < 50 | COC(Cn1c(SC2CCC(C(=O)O)CC2O)nc(-c2ccc(F)cc2)c1-c1ccnc(NC(C)=O)c1)OC (stereo not given)
3 | < 50 | < 50 | < 50 | < 50 | < 50 | < 50 | < 50 | < 50 | < 50 | < 50 | < 50 | < 50 | CC(=O)Nc1cc(-c2c(-c3ccc(F)cc3)nc(S/C=C\C(=O)O)n2C2CCCCC2)ccn1
4 | < 50 | < 50 | < 50 | < 50 | < 50 | < 50 | < 50 | < 50 | < 50 | < 50 | < 50 | < 50 | CC(=O)Nc1cc(-c2c(-c3ccc(F)cc3)nc(S/C=C\C(=O)O)n2CC2CCCO2)ccn1 (racemic)
5 | < 50 | < 50 | < 50 | < 50 | < 50 | < 50 | < 50 | < 50 | < 50 | < 50 | < 50 | < 50 | CC(=O)Nc1cc(-c2c(-c3ccc(F)cc3)nc(Sc3cccc(I)n3)n2C2CCCCC2)ccn1
